Reference: patent publication US20150105252A1, “SUBSTITUTED PYRAZOLES AS HERBICIDES” (E I DU PONT DE NEMOURS AND COMPANY, priority 2013, published 2015)

Assays:
arrowleaf sida = assay: Test F postemergence; assay type: in vivo, Sida rhombifolia; conditions: scale 0 to 100
In short: (§1)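 Percent-control style visual scores, from 0 (no effect) to 100 (complete control), were given relative to controls. Treatment timing: preemergence on silt loam plantings, or postemergence at 1- to 4-leaf stage. Evaluation came 14 to 21 days after spraying, greenhouse conditions.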

barnyardgrass = assay: Test F postemergence; assay type: in vivo, Echinochloa crus-galli; conditions: scale 0 to 100
Source text: (§2) Seeds of plant species selected from corn (Zea mays), soybean (Glycine max), velvetleaf (Abutilon theophrasti), lambsquarters (Chenopodium album), wild poinsettia (Euphorbia heterophylla), pigweed, palmer (palmer pigweed, Amaranthus palmeri), common waterhemp (Amaranthus rudis), surinam grass (Brachiaria decumbens), large crabgrass (Digitaria sanguinalis), crabgrass, Brazil (Brazilian crabgrass, Digitaria horizontalis), fall panicum (Panicum dichotomiflorum), giant foxtail (Setaria faberii), green foxtail (Setaria viridis), goosegrass (Eleusine indica), johnsongrass (Sorghum halepense), common ragweed (Ambrosia elation), barnyardgrass (Echinochloa crus-galli), southern sandbur (Cenchrus echinatus), arrowleaf sida (Sida rhombifolia), Italian ryegrass (Lolium multiflorum), dayflower, VA (Virginia (VA) dayflower, Commelina virginica), field bindweed (Convolvulus arvensis), cocklebur (common cocklebur, Xanthium strumarium), morningglory (Ipomoea coccinea), nightshade (eastern black nightshade, Solanum ptycanthum), kochia (Kochia scoparia), yellow nutsedge (Cyperus esculentus), and hairy beggarticks (Bidens pilosa), were planted into a silt loam soil and treated preemergence with test chemicals formulated in a non-phytotoxic solvent mixture which included a surfactant.
(§3) At the same time, plants from these crop and weed species and also horseweed (Canada horseweed, Conyza canadensis), smartweed (ladysthumb smartweed, Polygonum persicaria), waterhemp_RES1, (ALS & Triazine resistant common waterhemp, Amaranthus rudis), and waterhemp_RES2, (ALS & HPPD resistant common waterhemp, Amaranthus rudis) were treated with postemergence applications of test chemicals formulated in the same manner. Plants ranged in height from 2 to 18 cm for postemergence treatments (1- to 4-leaf stage). Treated plants and controls were maintained in a greenhouse for 14 to 21 days, after which time all species were compared to controls and visually evaluated. Plant response ratings, summarized in Table F, are based on a scale of 0 to 100 where 0 is no effect and 100 is complete control. A dash (-) response means no test result.

leafy spurge = assay: Test E preemergence; assay type: in vivo, Euphorbia esula; conditions: 21 days, scale 0 to 100
Source text: (§4) Seeds of plant species selected from bermudagrass (Cynodon dactylon), Surinam grass (Brachiaria decumbens), crabgrass, large (large crabgrass, Digitaria sanguinalis), crabgrass, naked (naked crabgrass, Digitaria nuda), foxtail, green (green foxtail, Setaria viridis), johnsongrass (Sorghum halepense), kochia (Kochia scoparia), morningglory (pitted morningglory, Ipomoea lacunosa), nutsedge, purple (purple nutsedge, Cyperus rotundus), ragweed (common ragweed, Ambrosia elation), mustard, black (black mustard, Brassica nigra), guineagrass (Panicum maximum), dallisgrass (Paspalum dilatatum), barnyardgrass (Echinochloa crus-galli), sandbur (southern sandbur, Cenchrus echinatus), sowthistle (common sowthistle, Sonchus oleraceous), ryegrass, Italian (Italian ryegrass, Lolium multiflorum), signalgrass (broadleaf signalgrass, Brachiaria platyphylla), dayflower, VA (Virginia (VA) dayflower, Commelina virginica), bluegrass (annual bluegrass, Poa annua), quackgrass (Elytrigia repens), mallow (common mallow, Malva sylvestris), buckwheat, wild (wild buckwheat, Polygonum convolvulus), leafy spurge (Euphorbia esula), common chickweed (Stellaria media), wild poinsettia (Euphorbia heterophylla), pigweed, palmer (palmer pigweed, Amaranthus palmeri), and pigweed (redroot pigweed, Amaranthus retroflexus) were planted into a blend of loam soil and sand and treated preemergence with test chemicals formulated in a non-phytotoxic solvent mixture which included a surfactant.
(§5) Treated plants and controls were maintained in a greenhouse for 21 days, after which time all species were compared to controls and visually evaluated. Plant response ratings, summarized in Table E, are based on a scale of 0 to 100 where 0 is no effect and 100 is complete control. A dash (-) response means no test result.

soybean = assay: Test F postemergence; assay type: in vivo, Glycine max; conditions: scale 0 to 100
Source text: as §2, §3

field bindweed = assay: Test F postemergence; assay type: in vivo, Convolvulus arvensis; conditions: scale 0 to 100
Source text: as §2, §3

corn = assay: Test F postemergence; assay type: in vivo, Zea mays; conditions: scale 0 to 100
Source text: as §2, §3

common chickweed = assay: Test E preemergence; assay type: in vivo, Stellaria media; conditions: 21 days, scale 0 to 100
Source text: as §4, §5

southern sandbur = assay: Test F postemergence; assay type: in vivo, Cenchrus echinatus; conditions: scale 0 to 100
In short: as §1

SMILES: CCCc1cc(C(=O)NCC(F)(F)F)nn1Cc1ccnc(C(F)(F)F)c1 [Compound 105]
- Plant response rating, Arrowleaf Sida (arrowleaf sida; Postemergence, 31 g ai/ha): 40
- Plant response rating, Arrowleaf Sida (arrowleaf sida; Postemergence, 125 g ai/ha): 60
- Plant response rating, Arrowleaf Sida (arrowleaf sida; Postemergence, 250 g ai/ha): 80
- Plant response rating, Arrowleaf Sida (arrowleaf sida; postemergence, 62 g ai/ha): 50
- Plant response rating, Arrowleaf Sida (arrowleaf sida; postemergence, 500 g ai/ha): 90
- Plant response rating, Barnyardgrass (barnyardgrass; Postemergence, 31 g ai/ha): 10
- Plant response rating, Barnyardgrass (barnyardgrass; Postemergence, 125 g ai/ha): 15
- Plant response rating, Barnyardgrass (barnyardgrass; Postemergence, 250 g ai/ha): 60
- Plant response rating, Barnyardgrass (barnyardgrass; postemergence, 62 g ai/ha): 5
- Plant response rating, Barnyardgrass (barnyardgrass; postemergence, 500 g ai/ha): 90
- Plant response rating, Leafy Spurge (leafy spurge; 16 g ai/ha): 100
- Plant response rating, Leafy Spurge (leafy spurge; 31 g ai/ha): 100
- Plant response rating, Leafy Spurge (leafy spurge; 62 g ai/ha): 100
- Plant response rating, Leafy Spurge (leafy spurge; 125 g ai/ha): 100
- Plant response rating, Leafy Spurge (leafy spurge; 250 g ai/ha): 100
- Plant response rating, Soybean (soybean; Postemergence, 31 g ai/ha): 70
- Plant response rating, Soybean (soybean; Postemergence, 125 g ai/ha): 90
- Plant response rating, Soybean (soybean; Postemergence, 250 g ai/ha): 95
- Plant response rating, Soybean (soybean; postemergence, 62 g ai/ha): 80
- Plant response rating, Soybean (soybean; postemergence, 500 g ai/ha): 100
- Plant response rating, Field Bindweed (field bindweed; Postemergence, 31 g ai/ha): 70
- Plant response rating, Field Bindweed (field bindweed; Postemergence, 125 g ai/ha): 70
- Plant response rating, Field Bindweed (field bindweed; Postemergence, 250 g ai/ha): 80
- Plant response rating, Field Bindweed (field bindweed; postemergence, 62 g ai/ha): 75
- Plant response rating, Field Bindweed (field bindweed; postemergence, 500 g ai/ha): 90
- Plant response rating, Corn (corn; Postemergence, 31 g ai/ha): 10
- Plant response rating, Corn (corn; Postemergence, 125 g ai/ha): 40
- Plant response rating, Corn (corn; Postemergence, 250 g ai/ha): 80
- Plant response rating, Corn (corn; postemergence, 62 g ai/ha): 30
- Plant response rating, Common Chickweed (common chickweed; 16 g ai/ha): 98
- Plant response rating, Common Chickweed (common chickweed; 31 g ai/ha): 100
- Plant response rating, Common Chickweed (common chickweed; 62 g ai/ha): 100
- Plant response rating, Common Chickweed (common chickweed; 125 g ai/ha): 100
- Plant response rating, Common Chickweed (common chickweed; 250 g ai/ha): 100
- Plant response rating, Southern Sandbur (southern sandbur; Postemergence, 31 g ai/ha): 0
- Plant response rating, Southern Sandbur (southern sandbur; Postemergence, 125 g ai/ha): 30
- Plant response rating, Southern Sandbur (southern sandbur; Postemergence, 250 g ai/ha): 70
- Plant response rating, Southern Sandbur (southern sandbur; postemergence, 62 g ai/ha): 10
- Plant response rating, Southern Sandbur (southern sandbur; postemergence, 500 g ai/ha): 90
